Values of other authors as cited in patent US20100029676A1 (priority 2005, published 2010).

System: imatinib-resistant BCR-ABL mutants
Settings: number of mutants active / tested; Weisberg et al.

In the case of `Cc1cn(-c2cc(NC(=O)c3ccc(C)c(Nc4nccc(-c5cccnc5)n4)c3)cc(C(F)(F)F)c2)cn1` [AMN107], the “imatinib-resistant BCR-ABL mutants against which significantly active” value is given as 32/33.
